Reference: patent US20220313717A1, “METHODS OF TREATING CRYPTOCOCCUS INFECTIONS” (MATINAS BIOPHARMA NANOTECHNOLOGIES, INC., priority 2019, published 2022)

Legend:
Cryptococcus spp. [1] = conditions: in vivo, cited from earlier work
Cryptococcus spp. [2] = conditions: cited from earlier work
[3] = Participant subjective impressions of cAMB versus prior IV AMB (qualitative scale, visual analog); design: species or system human; conditions: recall of prior IV therapy (6/24)
Procedure: Trial endpoints included: 1) Proportion of daily dose received and tolerated without vomiting within 30 minutes; 2) Cumulative score of nausea, vomiting, diarrhea by Common Terminology Criteria AE (CTCAE) grade scoring criteria (U.S. Department of Health and Human Services NIoH, National Cancer Institute, 2017, Common Terminology Criteria for Adverse Events (CTCAE) v 5.0); 3) Incidence of adverse events (AEs) by National Institute of Allergy and Infectious Diseases (NIAID) Division of AIDS (DAIDS) toxicity scale (version 2017) for Grade 1-5 or serious AEs (SAE) (U.S. Department of Health and Human Services NIoH, National Institute of Allergy and Infectious Diseases, Division of AIDS, 2017, Division of AIDS (DAIDS) Table for Grading the Severity of Adult and Pediatric Adverse Events, Corrected Version 2.1.); 4) Participant subjective impression(s) of cAMB by visual analog and other scales. All clinical and laboratory AEs were followed up until resolution.
Statistical analyses were primarily descriptive. The median and interquartile ranges or the number and proportions were reported where appropriate. Area under the curve (AUC) calculations were made using a linear trapezoidal method with statistical comparison by ANOVA. […]
Using a qualitative scale, we assessed participant impressions of their cAMB experience versus their prior IV AMB experience in the Phase 1A cohort.

CYP2C9 = CYP2C9 (Homo sapiens, UniProt P11712); conditions: cited from earlier work
Chain of CYP2C9 (P11712 whole entry): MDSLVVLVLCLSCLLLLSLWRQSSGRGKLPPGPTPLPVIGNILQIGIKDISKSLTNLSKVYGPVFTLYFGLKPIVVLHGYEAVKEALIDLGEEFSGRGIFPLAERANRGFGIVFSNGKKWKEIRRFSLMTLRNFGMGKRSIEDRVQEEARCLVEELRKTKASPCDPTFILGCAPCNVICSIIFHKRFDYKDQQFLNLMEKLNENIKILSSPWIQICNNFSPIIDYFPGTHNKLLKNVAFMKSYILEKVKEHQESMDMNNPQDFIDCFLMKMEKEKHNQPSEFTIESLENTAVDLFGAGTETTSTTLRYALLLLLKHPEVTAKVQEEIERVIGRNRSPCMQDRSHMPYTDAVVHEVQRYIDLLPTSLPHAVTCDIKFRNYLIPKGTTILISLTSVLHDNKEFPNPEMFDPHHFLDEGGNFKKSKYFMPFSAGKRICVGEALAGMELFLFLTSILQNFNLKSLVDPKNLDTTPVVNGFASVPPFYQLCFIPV

CYP3A4 = CYP3A4 (Homo sapiens, UniProt P08684); conditions: cited from earlier work
Chain of CYP3A4 (P08684 whole entry): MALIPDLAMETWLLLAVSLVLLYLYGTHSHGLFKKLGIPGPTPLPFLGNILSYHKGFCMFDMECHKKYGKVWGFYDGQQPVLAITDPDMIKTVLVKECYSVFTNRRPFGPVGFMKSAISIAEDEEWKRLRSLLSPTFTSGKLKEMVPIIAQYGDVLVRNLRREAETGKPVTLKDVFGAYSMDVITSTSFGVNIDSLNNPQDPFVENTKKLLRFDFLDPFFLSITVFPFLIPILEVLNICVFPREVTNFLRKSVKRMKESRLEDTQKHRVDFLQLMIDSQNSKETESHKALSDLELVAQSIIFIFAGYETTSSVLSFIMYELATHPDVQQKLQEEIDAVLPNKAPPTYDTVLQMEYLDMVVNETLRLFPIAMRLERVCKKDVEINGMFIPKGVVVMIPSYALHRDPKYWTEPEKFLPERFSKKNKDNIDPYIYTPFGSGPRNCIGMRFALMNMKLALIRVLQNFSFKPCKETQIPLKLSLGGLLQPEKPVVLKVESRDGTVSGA

In the case of `OC(Cn1cnnn1)(c1ccc(F)cc1F)C(F)(F)c1ccc(-c2ccc(OCC(F)(F)F)cc2)cn1` (stereo not drawn) [VT-1129], the “fungicidal activity in mouse models of Cryptococcus spp. infection” value (Cryptococcus spp. [1]) is given as “fungicidal” and the CNS penetration (Cryptococcus spp. [1]; mouse) is given as “good CNS penetration”.
For `Nc1ncccc1-c1cc(Cc2ccc(COc3ccccn3)cc2)no1` [E1210], the “in vitro activity against Cryptococcus spp.” value (Cryptococcus spp. [2]) is listed as “has in vitro activity against Cryptococcus spp”.
In the case of `C[C@@H]1[C@H](O)[C@@H](C)/C=C/C=C/C=C/C=C/C=C/C=C/C=C/[C@H](O[C@@H]2O[C@H](C)[C@@H](O)[C@H](N)[C@@H]2O)C[C@@H]2O[C@](O)(C[C@@H](O)C[C@@H](O)[C@H](O)CC[C@@H](O)C[C@@H](O)CC(=O)O[C@H]1C)C[C@H](O)[C@H]2C(=O)O` [IV AMB, amphotericin B], the “participants who recalled severe nausea” value [3] is reported as 25%.
In the case of `OC(Cn1cncn1)(Cn1cncn1)c1ccc(F)cc1F` [Fluconazole, fluconazole], the CYP2C9 inhibition (CYP2C9) is listed as “potent CYP2C9 inhibitor” and the CYP3A4 inhibition (CYP3A4) is listed as “moderate CYP3A4 inhibitor”.
